Among the data in ChEMBL document CHEMBL3045573, “Design, synthesis, and quantitative structure-activity relationship study of herbicidal analogues of pyrazolo[5,1-d][1,2,3,5]tetrazin-4(3H)ones” (2007) are inhibition of growth values, retold here.

Holding throughout (format): functional
Holding throughout (details): read-out: GI

The subject of test [1] is Echinochloa crus-galli. The test can be described thus: Herbicidal activity against Echinochloa crus-galli (barnyard grass) assessed as inhibition of seedling growth at 10 ug/mL for 65 hr at 28 +/- 1 degC by cup test.
In test [2] the test system is Echinochloa crus-galli. The test can be described thus: Herbicidal activity against Echinochloa crus-galli (barnyard grass) assessed as inhibition of seedling growth at 100 ug/mL for 65 hr at 28 +/- 1 degC by cup test.
The test system of test [3] is Brassica rapa subsp. oleifera. The test can be described thus: Herbicidal activity against Brassica rapa subsp. oleifera assessed as inhibition of root growth of rape seed at 10 ug/mL for 65 hr at 28 +/- 1 degC by root test.
Test [4] relates to Brassica rapa subsp. oleifera. The test can be described thus: Herbicidal activity against Brassica rapa subsp. oleifera assessed as inhibition of root growth of rape seed at 100 ug/mL for 65 hr at 28 +/- 1 degC by root test.

For the molecule `C=CCOc1cc(-n2nnc3c(C(=O)OCC)c(C(F)(F)F)nn3c2=O)c(F)cc1Cl`, the inhibition of growth at 10 µg/mL (in the test with Echinochloa crus-galli [1]; in test [3]) was 0% each time. Further, the results for the inhibition of growth at 100 µg/mL (with Echinochloa crus-galli [2]; in test [4]) were 16% and 2%, respectively.

For `CCCOc1cc(-n2nnc3c(C(=O)OCC)c(C)nn3c2=O)c(F)cc1Cl`, the inhibition of growth at 10 µg/mL (in the test on Echinochloa crus-galli [1]; in test [3]) was 0% throughout. For the same molecule, the inhibition of growth at 100 µg/mL in the test with Echinochloa crus-galli [2] was 18%; in test [4], 0%.

`CCCOc1cc(-n2nnc3c(C(=O)OCC)c(SC)nn3c2=O)c(F)cc1Cl`: the inhibition of growth at 10 µg/mL (in the test on Echinochloa crus-galli [1]; in test [3]) was 0% each time. Further, the values for the inhibition of growth at 100 µg/mL (in the test on Echinochloa crus-galli [2]; in test [4]) were 12% and 2%, respectively.

With `CCCOc1cc(-n2nnc3c(C(=O)OCC)c(C(F)(F)F)nn3c2=O)c(F)cc1Cl`, the inhibition of growth at 10 µg/mL (in the test on Echinochloa crus-galli [1]; in test [3]) was 0% each time. Besides, the inhibition of growth at 100 µg/mL in the test on Echinochloa crus-galli [2] came to 20%; in test [4] it was 5%.

Regarding `CCOC(=O)c1c(SC)nn2c(=O)n(-c3cc(OC(C)C)c(Cl)cc3F)nnc12`, the inhibition of growth at 10 µg/mL (in the test on Echinochloa crus-galli [1]; in test [3]) was 0% in each case. The inhibition of growth at 100 µg/mL in the test with Echinochloa crus-galli [2] amounted to 20%; in test [4], 13%.

On to `CCOC(=O)c1c(SC)nn2c(=O)n(-c3cccc(C(F)(F)F)c3)nnc12`, for which the inhibition of growth at 10 µg/mL in the test on Echinochloa crus-galli [1] was found to be 0%; in test [3], 34%. In addition, the inhibition of growth at 100 µg/mL in the test with Echinochloa crus-galli [2] was found to be 0%; in test [4], 37%.

In the case of `CCOC(=O)c1c(C(F)(F)F)nn2c(=O)n(-c3cccc(C(F)(F)F)c3)nnc12`, the inhibition of growth at 10 µg/mL (in the test on Echinochloa crus-galli [1]; in test [3]) was 0% throughout. Besides, the figures for the inhibition of growth at 100 µg/mL (with Echinochloa crus-galli [2]; in test [4]) were 1% and 14%, respectively.

As for `CCOC(=O)c1c(C)nn2c(=O)n(-c3ccccc3C(F)(F)F)nnc12`, the inhibition of growth at 10 µg/mL is 0% in the test on Echinochloa crus-galli [1] and 5% in test [3]. For the same molecule, the inhibition of growth at 100 µg/mL with Echinochloa crus-galli [2] turned out to be 6%; in test [4], 86%.

As for `CCOC(=O)c1c(SC)nn2c(=O)n(-c3ccccc3C(F)(F)F)nnc12`, the inhibition of growth at 10 µg/mL (in the test with Echinochloa crus-galli [1]; in test [3]) was 0% throughout. The inhibition of growth at 100 µg/mL in the test on Echinochloa crus-galli [2] is 0%; in test [4] it was 23%.

Turning to `CCOC(=O)c1c(C(F)(F)F)nn2c(=O)n(-c3ccccc3C(F)(F)F)nnc12`, the inhibition of growth at 10 µg/mL with Echinochloa crus-galli [1] was 0%; in test [3], 7%. Further, the inhibition of growth at 100 µg/mL (with Echinochloa crus-galli [2]; in test [4]) was 9% throughout.

In the case of `CCOC(=O)c1c(C)nn2c(=O)n(-c3ccc(C(F)(F)F)cc3)nnc12`, the inhibition of growth at 10 µg/mL worked out at 0% with Echinochloa crus-galli [1] and 82% in test [3]. Besides, the inhibition of growth at 100 µg/mL stood at 10% in the test on Echinochloa crus-galli [2] and 90% in test [4].

For the molecule `CCOC(=O)c1c(SC)nn2c(=O)n(-c3ccc(C(F)(F)F)cc3)nnc12`, the inhibition of growth at 10 µg/mL in the test with Echinochloa crus-galli [1] stood at 2%; in test [3] it was 4%. For the same molecule, the results for the inhibition of growth at 100 µg/mL (with Echinochloa crus-galli [2]; in test [4]) were 22% and 18%, respectively.

Consider `CCOC(=O)c1c(C(F)(F)F)nn2c(=O)n(-c3ccc(C(F)(F)F)cc3)nnc12`, for which the results for the inhibition of growth at 10 µg/mL (in the test with Echinochloa crus-galli [1]; in test [3]) were 9% and 0%, respectively. For the same molecule, the inhibition of growth at 100 µg/mL in the test with Echinochloa crus-galli [2] came out at 18%; in test [4], 2%.

In the case of `CCOC(=O)c1c(C)nn2c(=O)n(-c3ccc(Cl)cc3C(F)(F)F)nnc12`, the inhibition of growth at 10 µg/mL with Echinochloa crus-galli [1] was 6%; in test [3] it was 0%. Besides, the inhibition of growth at 100 µg/mL was determined as 14% in the test with Echinochloa crus-galli [2] and 63% in test [4].

On to `CCOC(=O)c1c(C(F)(F)F)nn2c(=O)n(-c3ccc(Cl)cc3C(F)(F)F)nnc12`, for which the inhibition of growth at 10 µg/mL (in the test with Echinochloa crus-galli [1]; in test [3]) was 0% in each case. For the same molecule, the inhibition of growth at 100 µg/mL was found to be 21% in the test with Echinochloa crus-galli [2] and 0% in test [4].

As for `CCOC(=O)c1c(C)nn2c(=O)n(-c3cc(C(F)(F)F)ccc3Cl)nnc12`, the results for the inhibition of growth at 10 µg/mL (with Echinochloa crus-galli [1]; in test [3]) were 0% and 61%, respectively. Further, the inhibition of growth at 100 µg/mL with Echinochloa crus-galli [2] came to 0%; in test [4], 65%.

For the molecule `CCOC(=O)c1c(SC)nn2c(=O)n(-c3cc(C(F)(F)F)ccc3Cl)nnc12`, the figures for the inhibition of growth at 10 µg/mL (in the test on Echinochloa crus-galli [1]; in test [3]) were 2% and 0%, respectively. The inhibition of growth at 100 µg/mL came out at 11% in the test on Echinochloa crus-galli [2] and 13% in test [4].

`CCOC(=O)c1c(C(F)(F)F)nn2c(=O)n(-c3cc(C(F)(F)F)ccc3Cl)nnc12`: the inhibition of growth at 10 µg/mL (with Echinochloa crus-galli [1]; in test [3]) was 0% in each case. Besides, the inhibition of growth at 100 µg/mL turned out to be 2% in the test with Echinochloa crus-galli [2] and 10% in test [4].

In the case of `CCOC(=O)c1c(C)nn2c(=O)n(-c3ccc(Cl)c(C(F)(F)F)c3)nnc12`, the inhibition of growth at 10 µg/mL with Echinochloa crus-galli [1] turned out to be 0%; in test [3] it was 89%. Besides, the inhibition of growth at 100 µg/mL in the test with Echinochloa crus-galli [2] was 4%; in test [4], 89%.

`CCOC(=O)c1c(SC)nn2c(=O)n(-c3ccc(Cl)c(C(F)(F)F)c3)nnc12`: the values for the inhibition of growth at 10 µg/mL (in the test on Echinochloa crus-galli [1]; in test [3]) were 0% and 22%, respectively. Also, the inhibition of growth at 100 µg/mL in the test on Echinochloa crus-galli [2] was 26%; in test [4], 24%.

Consider `CCOC(=O)c1c(C)nn2c(=O)n(-c3c(Cl)cc(C(F)(F)F)cc3Cl)nnc12`, for which the figures for the inhibition of growth at 10 µg/mL (with Echinochloa crus-galli [1]; in test [3]) were 0% and 4%, respectively. For the same molecule, the inhibition of growth at 100 µg/mL was found to be 22% in the test on Echinochloa crus-galli [2] and 25% in test [4].

As to `CCOC(=O)c1c(SC)nn2c(=O)n(-c3c(Cl)cc(C(F)(F)F)cc3Cl)nnc12`, the inhibition of growth at 10 µg/mL (with Echinochloa crus-galli [1]; in test [3]) was 3% each time. The inhibition of growth at 100 µg/mL stood at 28% with Echinochloa crus-galli [2] and 9% in test [4].

As to `CCOC(=O)c1c(C(F)(F)F)nn2c(=O)n(-c3c(Cl)cc(C(F)(F)F)cc3Cl)nnc12`, the inhibition of growth at 10 µg/mL in the test with Echinochloa crus-galli [1] came to 0%; in test [3] it was 2%. Also, the inhibition of growth at 100 µg/mL in the test on Echinochloa crus-galli [2] was 15%; in test [4], 22%.

Regarding `CCOC(=O)c1c(C(F)(F)F)nn2c(=O)n(-c3ccc(Cl)c(C(F)(F)F)c3)nnc12`, the inhibition of growth at 10 µg/mL is 0% in the test with Echinochloa crus-galli [1] and 13% in test [3]. The figures for the inhibition of growth at 100 µg/mL (in the test with Echinochloa crus-galli [2]; in test [4]) were 0% and 14%, respectively.

Turning to `CC#COc1cc(-n2nnc3c(C(=O)OCC)c(SC)nn3c2=O)c(F)cc1Cl`, the inhibition of growth at 10 µg/mL (in the test with Echinochloa crus-galli [1]; in test [3]) was 0% each time. In addition, the inhibition of growth at 100 µg/mL is 32% with Echinochloa crus-galli [2] and 0% in test [4].

Take `CC#COc1cc(-n2nnc3c(C(=O)OCC)c(C(F)(F)F)nn3c2=O)c(F)cc1Cl`: the inhibition of growth at 10 µg/mL (in the test with Echinochloa crus-galli [1]; in test [3]) was 0% throughout. Besides, the inhibition of growth at 100 µg/mL with Echinochloa crus-galli [2] was 28%; in test [4], 0%.

In the case of `C=CCOc1cc(-n2nnc3c(C(=O)OCC)c(C)nn3c2=O)c(F)cc1Cl`, the inhibition of growth at 10 µg/mL (in the test on Echinochloa crus-galli [1]; in test [3]) was 0% in each case. Moreover, the inhibition of growth at 100 µg/mL in the test on Echinochloa crus-galli [2] came out at 24%; in test [4], 0%.

Turning to `C=CCOc1cc(-n2nnc3c(C(=O)OCC)c(SC)nn3c2=O)c(F)cc1Cl`, the inhibition of growth at 10 µg/mL (in the test on Echinochloa crus-galli [1]; in test [3]) was 0% each time. For the same molecule, the values for the inhibition of growth at 100 µg/mL (with Echinochloa crus-galli [2]; in test [4]) were 22% and 25%, respectively.
